IC50 data for 33 molecules are collected here from PubChem BioAssay AID2305 (GlaxoSmithKline (GSK), 2010).

The assay has as its system P. falciparum 3D7 growth, pLDH absorbance. Put plainly: P. falciparum 3D7 growth inhibition, dose response, strain 3D7 (AID 2305).

What is called IC50 is the point on the concentration scale where inhibition reaches its midpoint. A low value points to higher potency. The molecule `CCOc1ccc(-c2nonc2NC(=O)c2ccccc2F)cc1OCC` displayed an IC50 of 0.84 µM.

Regarding `O=C(/C=C/c1ccc(Cl)c(Cl)c1)NCCCCCN1CCC(C(=O)Nc2cccc(Cl)c2)CC1`, the concentration for half-maximal inhibition (IC50) came to 0.68 µM.

In turn, `C=Cc1ccccc1C1(O)CCN(CCCCNC(=O)c2ccc(-c3ccc(C#N)cc3)cc2)CC1` gave a half-maximal inhibitory concentration (IC50) of 0.52 µM.

Regarding `Cc1ccccc1CN1CCCN(Cc2ccc(C(=O)Nc3ccc(Cl)cc3)cc2)CC1`, the concentration for half-maximal inhibition (IC50) was 0.94 µM.

Regarding `OC(CN1CCN(c2cccc(Cl)c2)CC1)C(c1ccccc1)c1ccccc1` (stereo not drawn), the IC50 stood at 1.15 µM.

In the case of `O=c1[nH]c(NCCCNCc2cc3c(Cl)cc(Cl)cc3[nH]2)nc2ccsc12`, the half-maximal inhibitory concentration (IC50) came out at 1.12 µM.

`CCN(C1CCCCC1)S(=O)(=O)c1ccc(OC)c(N2CCN(C(=O)C(Cl)(Cl)Cl)CC2)c1`: the 50% inhibitory concentration (IC50) was found to be 0.63 µM.

With `Cc1cccc(Cn2nc(-c3ccccc3)c(N3CCCCC3)cc2=O)c1`, the 50% inhibitory concentration (IC50) was 0.46 µM.

Molecule `CC(C)(c1ccccc1)c1ccc(O)c(CN2CCOCC2)c1` displayed an IC50 of 0.98 µM.

`Fc1ccc2nc(-c3ccc(-c4ccc(CN5CCN(CCN6CCOCC6)CC5)cc4)cc3)[nH]c2c1` gave an IC50 of 0.18 µM.

Molecule `CCCO[C@H](C(=O)OC)[C@@H](CC1Cc2ccccc2C1)C(=O)NCCC1=CCCCC1` yielded an IC50 of 0.97 µM.

Take `Cc1cccc(C(=O)Nc2ccnc(N3CCCN(Cc4cccc(O)c4)CC3)c2)c1`: the IC50 amounted to 1.21 µM.

Molecule `CC(=O)Nc1csc(-c2cnc(/C=C(\C)C[C@@H]3OC[C@H](C[C@@H]4O[C@H]4[C@@H](C)[C@H](C)O)[C@@H](O)[C@H]3O)o2)c1` gave a half-maximal inhibitory concentration (IC50) of 0.18 µM.

On to `O=c1cc(NCCCNCc2cc3c(Cl)cc(Cl)cc3[nH]2)[nH]c2ccccc12`, for which the IC50 was 0.86 µM.

Regarding `CCCCCN(C(=O)Nc1cc(C(F)(F)F)cc(C(F)(F)F)c1)C(C)c1nc2ccccc2c(=O)n1CC` (stereo not drawn), the half-inhibitory concentration (IC50) came to 0.79 µM.

For the molecule `O=C(Nc1ccc(CN2CCN(S(=O)(=O)c3cccc(Cl)c3)CC2)cc1)c1cccs1`, the IC50 was found to be 1.08 µM.

The molecule `CC(=O)Nc1nc(C(=O)Nc2ccc(-c3cccc(-c4nc5ccc(F)cc5[nH]4)c3)cc2)cs1` had a half-inhibitory concentration (IC50) of 0.29 µM.

`O=C(NCc1cccc(F)c1)Nc1cccc(-c2cccc(-c3nc4ccc(C(F)(F)F)cc4[nH]3)c2)c1` registered a half-inhibitory concentration (IC50) of 0.33 µM.

`Cc1cc(NC(=O)NCCN2CCC(NS(=O)(=O)c3ccccc3F)CC2)c2ccccc2n1` displayed an IC50 of 0.95 µM.

Molecule `COc1ccc(NC(=O)C2c3ccccc3C(=O)N(C3CCCC3)C2c2cccs2)cc1` (stereo not drawn) gave an IC50 of 1.71 µM.

With `CC(C)CC(C)NC(=O)C1Cc2c([nH]c3ccc(F)cc23)C2(CCN(Cc3ccccc3)CC2)N1` (stereo not drawn), the IC50 stood at 0.97 µM.

`COc1ccc2nccc([C@@H](O)CN3CCC(NCc4cc5c(F)ccc(F)c5[nH]4)CC3)c2c1` displayed a 50% inhibitory concentration (IC50) of 0.14 µM.

The molecule `O=C(Nc1ccc2c(c1)CCN2C1CCN(Cc2cccc3cc[nH]c23)C1)c1ccco1` (stereo not drawn) had an IC50 of 1.21 µM.

The molecule `CC(C)[C@H]1C(=O)N(S(C)(=O)=O)[C@H]2CCN(C(=O)c3ccc(CN4CCCCC4)c([N+](=O)[O-])c3)[C@H]12` had an IC50 of 0.62 µM.

Regarding `O=C(NC(NC(=S)Nc1ccc([N+](=O)[O-])cc1)C(Cl)(Cl)Cl)c1cccc(Cl)c1` (stereo not drawn), the IC50 turned out to be 0.73 µM.

Molecule `O=c1n(CC2CCCCC2)c2cc(Cl)cc(OCCNc3ccncc3)c2n1CC1CCCCC1` showed a half-maximal inhibitory concentration (IC50) of 0.59 µM.

As to `Cc1[nH]c(C)c(C(F)(F)F)c(=O)c1-c1ccc(Oc2ccc(OC(F)(F)F)cc2)cc1`, the IC50 came out at 0.17 µM.

`Fc1ccc(Nc2n[nH]c(CNC3CCN(Cc4ccc(Cl)c(Cl)c4)CC3)n2)cc1`: the IC50 came to 1.38 µM.

As for `COc1ccc2ncc(F)c(CCN3CC[C@H](NCc4cc(C#N)c5c(c4)OCCO5)[C@H](O)C3)c2c1`, the IC50 was determined as 0.89 µM.

Turning to `CCCC(=O)NC(c1ccc(C)cc1)c1ccc2cccnc2c1O` (stereo not drawn), the half-inhibitory concentration (IC50) turned out to be 0.96 µM.

Molecule `COc1ccc(S(=O)(=O)NCC2CCCN(CCCCCNC(=O)/C=C/c3ccc(Cl)c(Cl)c3)C2)cc1` (stereo not drawn) registered an IC50 of 1.06 µM.

`Clc1ccc2c(NCCc3ccccc3)ccnc2c1` yielded a half-maximal inhibitory concentration (IC50) of 0.49 µM.

`O=c1[nH]ccc2nc(N[C@@H]3CCNC3)nc(Nc3cc(Cl)cc(Cl)c3)c12` registered an IC50 of 0.74 µM.
